What was measured:
[1] = tested on: TMPRSS2 mRNA; assay: TMPRSS2 mRNA levels in LMR20 cells; format: cell-based, human; conditions: with or without DHT/R1881
Procedure: LMR20 cells were plated at 1,500 cells per well in phenol red-free medium with CSS.

[2] = tested on: 22RV1 cells; assay: 22RV1 cell proliferation, ASO in combination with MDV3100 (Example 22); format: cell-based, human; conditions: for Proliferation (% untreated control) in 22RV1 without MDV-3100: RNAiMAX, 3 days
Method in brief: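 Cells seeded at 2,000 per well in 5% CSS medium for 48 h, then treated for 3 days. Proliferation read with a tetrazolium (CellTiter 96 AQueous One) kit and given as percent inhibition relative to untreated cells.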

[3] = tested on: LMR20 cells; assay: Proliferation of MDV3100-resistant LMR20 cells (MTT; with R1881 or DHT); format: cell-based, human; conditions: 5 days
Method in brief: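 Cells were held in phenol red-free medium with charcoal-stripped FBS and given antisense oligonucleotides plus 1 nM R1881 or 10 nM DHT from day 1. Proliferation was read by MTT after 5 days of treatment and reported as percent inhibition against non-treated cells.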

[4] = tested on: AR mRNA; assay: Time-course AR mRNA expression in C4-2B cells (8, 24, 48 hours); format: cell-based, human; conditions: for Percent expression of AR compared to the control group in 8 hours / Percent expression of AR compared to the control group in 24 hours / Percent expression of AR compared to the control group in 48 hours: C4-2B cells
Procedure: C4-2B cells were plated at 1,000 cells per well in complete medium. […] After a treatment period of 8 hours, 24 hours, and 48 hours, AR expression was measured with primer probe set hAR-LTS00943.

[5] = tested on: TMPRSS2 mRNA; assay: TMPRSS2 expression in LNCaP cells (complete, CSS+DHT medium); format: cell-based, human; conditions: for Percent inhibition of TMPRSS2 expression in LNCaP cells cultured in CSS + DHT medium: CSS + DHT (1 nM) medium, 48 hrs; for Percent inhibition of TMPRSS2 expression in LNCaP cells cultured in complete medium: 48 hours
Method in brief: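 LNCaP cells treated with antisense oligonucleotides, ISIS 549148 as negative control; AR, PSA and TMPRSS2 RNA measured after 48 h. Complete medium used 1,000 cells/well; stripped-serum condition used 2,000 cells/well in phenol red-free RPMI with 5% charcoal-stripped serum, with 1 nM DHT (final) added 4 h after treatment.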

[6] = tested on: MDA-MB-453 tumor; assay: Tumor volume in MDA-MB-453 breast cancer orthotopic model; format: in vivo, NSG mice; conditions: Study 2, MDA-MB-453 model, NSG mice, 50 mg/kg s.c. 5 days per week for 2 weeks
[7] = tested on: cleaved PARP; assay: Cleaved PARP western blot in VCaP cells; format: cell-based, human
[8] = tested on: AR V7 variant mRNA; assay: AR V7 variant RNA in VCaP cells; format: cell-based, human; conditions: RNAiMax, 48 hrs

With “TTGATTTAATGGTTGC [ISIS 560131] (MOE and (S)-cEt gapmer chemistry, further chemistry not given here) [targets intron 1]” the “TMPRSS2 mRNA levels in LMR20 cells” value [1] was “reduced PSA levels and TMPRSS2 more extensively than the LNA gapmer ISIS 554221 or MDV3100”, the “synergy with MDV3100” value ([2]; 22RV1 cells) was “synergistic with MDV3100” and the “cell proliferation inhibited, combination” value ([2]; 22RV1 cells, 1.34 nM ASO in combination with 1.0 μM MDV3100) was 23%. The “inhibited cell proliferation, ASO alone” value ([2]; 22RV1 cells, ASO alone at 1.34 nM) was 3%, the “Proliferation (% untreated control) in 22RV1 cells with 0.04 μM MDV-3100” value ([2]; ASO dose 0.4 nM + 0.04 μM MDV-3100) was 96 % untreated control and the “Proliferation (% untreated control) in 22RV1 cells with 0.2 μM MDV-3100” value ([2]; ASO dose 0.4 nM + 0.2 μM MDV-3100) was 95 % untreated control. For the same sequence, the “Proliferation (% untreated control) in 22RV1 cells with 1.0 μM MDV-3100” value ([2]; ASO dose 0.4 nM + 1.0 μM MDV-3100) was 96 % untreated control, the “Proliferation (% untreated control) in 22RV1 cells with 5.0 μM MDV-3100” value ([2]; ASO dose 0.4 nM + 5.0 μM MDV-3100) was 91 % untreated control and the “Proliferation (% untreated control) in 22RV1 without MDV-3100” value ([2]; ASO dose 0.4 nM) was 103 % untreated control. For the same sequence, the “Proliferation (% untreated control) in 22RV1 cells with 0.04 μM MDV-3100” value ([2]; ASO dose 1.34 nM + 0.04 μM MDV-3100) was 80 % untreated control, the “Proliferation (% untreated control) in 22RV1 cells with 0.2 μM MDV-3100” value ([2]; ASO dose 1.34 nM + 0.2 μM MDV-3100) was 90 % untreated control and the “Proliferation (% untreated control) in 22RV1 cells with 1.0 μM MDV-3100” value ([2]; ASO dose 1.34 nM + 1.0 μM MDV-3100) was 77 % untreated control. For the same sequence, the “Proliferation (% untreated control) in 22RV1 cells with 5.0 μM MDV-3100” value ([2]; ASO dose 1.34 nM + 5.0 μM MDV-3100) was 76 % untreated control, the “Proliferation (% untreated control) in 22RV1 without MDV-3100” value ([2]; ASO dose 1.34 nM) was 97 % untreated control and the “Proliferation (% untreated control) in 22RV1 cells with 0.04 μM MDV-3100” value ([2]; ASO dose 4.0 nM + 0.04 μM MDV-3100) was 65 % untreated control. For the same sequence, the “Proliferation (% untreated control) in 22RV1 cells with 0.2 μM MDV-3100” value ([2]; ASO dose 4.0 nM + 0.2 μM MDV-3100) was 76 % untreated control, the “Proliferation (% untreated control) in 22RV1 cells with 1.0 μM MDV-3100” value ([2]; ASO dose 4.0 nM + 1.0 μM MDV-3100) was 63 % untreated control and the “Proliferation (% untreated control) in 22RV1 cells with 5.0 μM MDV-3100” value ([2]; ASO dose 4.0 nM + 5.0 μM MDV-3100) was 63 % untreated control. The “Proliferation (% untreated control) in 22RV1 without MDV-3100” value ([2]; ASO dose 4.0 nM) was 77 % untreated control, the “Proliferation (% untreated control) in 22RV1 cells with 0.04 μM MDV-3100” value ([2]; ASO dose 13.4 nM + 0.04 μM MDV-3100) was 39 % untreated control and the “Proliferation (% untreated control) in 22RV1 cells with 0.2 μM MDV-3100” value ([2]; ASO dose 13.4 nM + 0.2 μM MDV-3100) was 51 % untreated control. The “Proliferation (% untreated control) in 22RV1 cells with 1.0 μM MDV-3100” value ([2]; ASO dose 13.4 nM + 1.0 μM MDV-3100) was 40 % untreated control, the “Proliferation (% untreated control) in 22RV1 cells with 5.0 μM MDV-3100” value ([2]; ASO dose 13.4 nM + 5.0 μM MDV-3100) was 41 % untreated control and the “Proliferation (% untreated control) in 22RV1 without MDV-3100” value ([2]; ASO dose 13.4 nM) was 57 % untreated control. For the same sequence, the “Percent inhibition of LMR20 cell proliferation” value ([3]; CSS + DHT, ASO 0.04 μM) was 0%, the “Percent inhibition of LMR20 cell proliferation” value ([3]; CSS + DHT, ASO 0.20 μM) was 13% and the “Percent inhibition of LMR20 cell proliferation” value ([3]; CSS + DHT, ASO 1.0 μM) was 57%. The “Percent inhibition of LMR20 cell proliferation” value ([3]; CSS + DHT, ASO 5.0 μM) was 71%, the “Percent inhibition of LMR20 cell proliferation” value ([3]; CSS + R1881, ASO 0.04 μM) was 0% and the “Percent inhibition of LMR20 cell proliferation” value ([3]; CSS + R1881, ASO 0.20 μM) was 13%. The “Percent inhibition of LMR20 cell proliferation” value ([3]; CSS + R1881, ASO 1.0 μM) was 55%, the “Percent inhibition of LMR20 cell proliferation” value ([3]; CSS + R1881, ASO 5.0 μM) was 70% and the “Percent inhibition of LMR20 cell proliferation” value ([3]; CSS, ASO 0.04 μM) was 0%. The “Percent inhibition of LMR20 cell proliferation” value ([3]; CSS, ASO 0.20 μM) was 0%, the “Percent inhibition of LMR20 cell proliferation” value ([3]; CSS, ASO 1.0 μM) was 9% and the “Percent inhibition of LMR20 cell proliferation” value ([3]; CSS, ASO 5.0 μM) was 16%. The LMR20 cell proliferation ([3]; in the presence of R1881 or DHT, 0.04-5.0 μM) was “significantly inhibited MDV3100-resistant prostate cancer cell proliferation in a dose dependent manner more extensively than ISIS 554221”, the “Percent expression of AR compared to the control group in 8 hours” value (shortened to “Percent expression of AR … in 8 hours”) ([4]; 0.04 μM) was 110% and the “Percent expression of AR compared to the control group in 24 hours” value (from here on “Percent expression of AR … in 24 hours”) ([4]; 0.04 μM) was 47%. The “Percent expression of AR compared to the control group in 48 hours” value (from here on “Percent expression of AR … in 48 hours”) ([4]; 0.04 μM) was 33%, the “Percent expression of AR … in 8 hours” value ([4]; 0.2 μM) was 85% and the “Percent expression of AR … in 24 hours” value ([4]; 0.2 μM) was 18%. The “Percent expression of AR … in 48 hours” value ([4]; 0.2 μM) was 5%, the “Percent expression of AR … in 8 hours” value ([4]; 1 μM) was 68% and the “Percent expression of AR … in 24 hours” value ([4]; 1 μM) was 5%. The “Percent expression of AR … in 48 hours” value ([4]; 1 μM) was 6%, the “Percent expression of AR … in 8 hours” value ([4]; 5.0 μM) was 45% and the “Percent expression of AR … in 24 hours” value ([4]; 5.0 μM) was 4%. The “Percent expression of AR … in 48 hours” value ([4]; 5.0 μM) was 4%, the AR expression ([4]; C4-2B cells, 8, 24 and 48 hours) was “reduced AR expression in the cells relative to the control set” and the “Percent inhibition of TMPRSS2 expression in LNCaP cells cultured in CSS + DHT medium” value (from here on “Percent inhibition … in CSS + DHT medium”) ([5]; 0.04 μM) was 6%. For the same sequence, the “Percent inhibition … in CSS + DHT medium” value ([5]; 0.2 μM) was 11%, the “Percent inhibition … in CSS + DHT medium” value ([5]; 1 μM) was 26% and the “Percent inhibition … in CSS + DHT medium” value ([5]; 5.0 μM) was 64%. The “Percent inhibition of TMPRSS2 expression in LNCaP cells cultured in complete medium” value (“Percent inhibition … in complete medium” below) ([5]; 0.04 μM) was 0%, the “Percent inhibition … in complete medium” value ([5]; 0.2 μM) was 25% and the “Percent inhibition … in complete medium” value ([5]; 1 μM) was 50%. For the same sequence, the “Percent inhibition … in complete medium” value ([5]; 5.0 μM) was 51%, the Tumor volumes ([6]; Day 0) was 144 and the Tumor volumes ([6]; Day 8) was 261. The Tumor volumes ([6]; Day 13) was 243, the Tumor volumes ([6]; Day 20) was 204 and the Tumor volumes ([6]; Day 23) was 232. For the same sequence, the Tumor volumes ([6]; Day 27) was 233, the Tumor volumes ([6]; Day 29) was 258 and the “cleaved PARP levels (western blot)” value [7] was “increased in a dose-dependent manner”. The “Percent inhibition of AR V7 variant” value ([8]; CSS + DHT medium, 1.34 nM) was 27%, the “Percent inhibition of AR V7 variant” value ([8]; CSS + DHT medium, 4.0 nM) was 31% and the “Percent inhibition of AR V7 variant” value ([8]; CSS + DHT medium, 13.4 nM) was 39%. The “Percent inhibition of AR V7 variant” value ([8]; CSS + DHT medium, 40 nM) was 41%, the “Percent inhibition of AR V7 variant” value ([8]; complete medium, 1.34 nM) was 0% and the “Percent inhibition of AR V7 variant” value ([8]; complete medium, 4.0 nM) was 57%. The “Percent inhibition of AR V7 variant” value ([8]; complete medium, 13.4 nM) was 78% and the “Percent inhibition of AR V7 variant” value ([8]; complete medium, 40 nM) was 84%.

Source: USRE48461E1, “Modulation of androgen receptor expression” (Ionis Pharmaceuticals, Inc., priority 2012, dated 2021)
